ChEMBL document CHEMBL1130583, “Benzylamine-based selective and orally bioavailable inhibitors of thrombin” (Bioorg Med Chem Lett, 1998)

Tests used:
[1] = Apparent permeability coefficient (Papp) was determined in human Caco-2 cell monolayer (n = 3); assay type: ADME, cell-based
Serine protease 1 = molecular target: T1, Serine protease 1 (Bos taurus, UniProt P00760); assay: Binding affinity towards bovine trypsin was evaluated in vitro
T1 sequence (P00760 whole entry): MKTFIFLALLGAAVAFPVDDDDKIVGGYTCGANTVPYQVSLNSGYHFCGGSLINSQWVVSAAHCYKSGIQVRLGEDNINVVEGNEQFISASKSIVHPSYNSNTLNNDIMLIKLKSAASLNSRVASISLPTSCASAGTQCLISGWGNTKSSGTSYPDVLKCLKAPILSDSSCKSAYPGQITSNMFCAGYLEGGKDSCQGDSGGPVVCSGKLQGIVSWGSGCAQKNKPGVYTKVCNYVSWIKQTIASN

Prothrombin = Prothrombin (Homo sapiens, UniProt P00734); assay: Binding affinity towards human thrombin
Rattus norvegicus = assay: In vivo antithrombotic activity was tested in rat thromboplastin-induced model of venous thrombosis at an intravenous bolus of 5 mg/Kg; assay type: functional
[2] = Time taken by the compound to achieve maximum concentration in rat plasma at 30 mg/Kg upon oral administration.; assay type: ADME, organism-based
[3] = Maximum concentration in rat plasma at 30 mg/Kg upon oral administration.; assay type: ADME, organism-based; design: dose 30 mg/Kg, route oral

| Papp [1] [×10⁻⁶ cm/s] | Ki (Serine protease 1) [µM] | Ki (Prothrombin) [nM] | Tmax [2] [h] | Cmax [3] [µM] | Structure (SMILES) | inhibition in vivo at 5 mg/kg (Rattus norvegicus) [%] |
| --- | --- | --- | --- | --- | --- | --- |
| 1.7 |  |  |  |  | CN(C(=O)[C@H](Cc1ccc(C(=N)NN)cc1)NS(=O)(=O)c1ccc2ccccc2c1)C1CCCC1 |  |
|  | 13.6 | 18.3 |  |  | CN(C(=O)[C@H](Cc1ccc(CN)cc1)NS(=O)(=O)c1ccc2ccccc2c1)C1CCCC1 | 17.6 |
| 0.2 |  |  |  |  | CN(C(=O)[C@H](Cc1ccc(C(=N)N)cc1)NS(=O)(=O)c1ccc2ccccc2c1)C1CCCC1 |  |
|  |  | 3.1 |  |  | NCc1ccc(C[C@H](NS(=O)(=O)c2ccc3ccccc3c2)C(=O)N2CCCCC2)cc1 |  |
| 10.7 | 14.2 | 6.6 | 2.33 | 2.8 | COc1ccc2cc(S(=O)(=O)N[C@@H](Cc3ccc(CN)cc3)C(=O)N(C)C3CCCC3)ccc2c1 | 44.1 |
|  | 3.3 | 5.7 |  |  | CN(C(=O)[C@H](Cc1ccc(CN)cc1)NS(=O)(=O)c1ccc2cc3ccccc3cc2c1)C1CCCC1 | 45.4 |

Continued, molecule first:

| Structure (SMILES) | Papp [1] [×10⁻⁶ cm/s] | Ki (Serine protease 1) [µM] | Ki (Prothrombin) [nM] | Tmax [2] [h] | Cmax [3] [µM] | inhibition in vivo at 5 mg/kg (Rattus norvegicus) [%] |
| --- | --- | --- | --- | --- | --- | --- |
| CCCc1ccc(S(=O)(=O)N[C@@H](Cc2ccc(CN)cc2)C(=O)N(C)C2CCCC2)cc1 |  | 9.04 | 9.6 |  |  |  |
| CN(C(=O)[C@H](Cc1ccc(CN)cc1)NS(=O)(=O)c1ccc2c(c1)CCCC2)C1CCCC1 |  | 9.8 | 10.1 |  |  | 16.4 |
| CN(C(=O)[C@H](Cc1ccc(CN)cc1)NS(=O)(=O)c1ccc(-c2ccccn2)s1)C1CCCC1 |  |  | 107 |  |  |  |
| CN(C(=O)[C@H](Cc1ccc(CN)cc1)NS(=O)(=O)c1ccc2c(c1)CCCCC2)C1CCCC1 |  | 6.3 | 3.3 | 1.33 | 3.5 | 39.4 |
| CN(C(=O)[C@H](Cc1ccc(CN)cc1)NS(=O)(=O)c1ccc(C2CCCCC2)cc1)C1CCCC1 |  | 4.8 | 20.1 |  |  | 23.8 |
| CN(C)c1cccc2c(S(=O)(=O)N[C@@H](Cc3ccc(CN)cc3)C(=O)N(C)C3CCCC3)cccc12 |  | 17.1 | 10.9 | 1.6 | 3.3 | 35.5 |
| CN(C(=O)[C@H](Cc1ccc(CN)cc1)NS(=O)(=O)c1ccc(-c2ccccc2)cc1)C1CCCC1 |  |  | 60.5 |  |  |  |
